Read-outs that look alike come from different tables or passages of the source.
Tests used:
[1] = weight gain, diabetes risk, dyslipidemia risk; cited from earlier work
[2] = after oral administration of a 40 mg tablet; package insert; cited from earlier work
[3] = Pharmacokinetic study, intramuscular injection, four arm parallel; type: in vivo, male Sprague-Dawley Rats; settings: male, Sprague-Dawley, im, rat
Experimental: A long acting formulation is expected to suppress the maximum blood concentration (Cmax) and maintain therapeutic blood profiles for an extended period of time. […] To evaluate the in-vivo performance of our formulations, three suspensions of Lurasidone HCl were prepared with varying particle size and/or viscosity at 100 mg/mL with compositions given in Table 23, and with processes shown in FIGS. 11, 12 and 13 for Suspensions 1, 2, and 3, respectively. As a control, a solution of Lurasidone HCl was prepared at 2.5 mg/mL. […]
The blood samples were collected, placed into chilled tubes containing sodium heparin, inverted several times to mix, and kept on ice until centrifugation. […] Samples were analyzed with LC-MS/MS against an eight point standard curve with concentrations ranging from 0.05 ng/mL to 100 ng/mL. […]
Mass Spectrometer Conditions • Instrument: PE Sciex API4000 • Interface: Electrospray (“Turbo Ion Spray”) • Mode: Multiple reactions monitoring (MRM) • Gases: CUR 20, CAD 10, GS1 50, GS2 50 • Source Temperature: 500° C. • Voltages and Ions Monitored:
The formulations were well tolerated, and no adverse local or systemic reactions were observed following intramuscular administration of lurasidone to the animals. (Pharmacokinetic parameters were calculated with Phoenix WinNonlin version 6.4). […]

[4] = pH dependence; cited from earlier work

Row | Compound | metabolic effects [1] | half-life [2] [h] | half-life ([3]; 1.5 mg/kg, calculated based on terminal phase plasma concentrations above 2% of Cmax) [h] | half-life ([3]; plasma, 45 mg/kg) [h] | solubility profile [4]
1 | CN1CCN(C2=Nc3cc(Cl)ccc3Nc3ccccc32)CC1 [clozapine] | moderate to high | – | – | – | –
2 | O=C1[C@@H]2[C@H]3CC[C@H](C3)[C@@H]2C(=O)N1C[C@@H]1CCCC[C@H]1CN1CCN(c2nsc3ccccc23)CC1 [lurasidone] | low | 18 | 10 | ≤ 505 | lower solubility at higher pH values
3 | Cc1cc2c(s1)Nc1ccccc1N=C2N1CCN(C)CC1 [olanzapine] | moderate to high | – | – | – | –
4 | OCCOCCN1CCN(C2=Nc3ccccc3Sc3ccccc32)CC1 [quetiapine] | moderate to high | – | – | – | –

— US20170196802A1, “Long Acting Injectable Formulations” (Abon Pharmaceuticals, LLC, priority 2016, published 2017)
